Data taken from patent US12391648B2, “Pyridyloxy thioester derivative and preparation method therefor, herbicidal composition, and application” (Qingdao Kingagroot Chemical Compound Co., Ltd., priority 2018, dated 2025).

How the values were obtained:
Experiment in all cases: Post-emergence test experiment (Table 3, 1000 g/ha)
Type in all cases: in vivo
Settings in all cases: post-emergence spray, after 3 weeks, fresh weight inhibition
Galium spurium = tested on: Galium spurium
In short: (§1)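 Weed seeds sown in soil-filled pots in greenhouse, sprayed at 2-3 leaf stage (2 weeks after sowing) with compound in acetone/tween-80 plus methyl oleate emulsible concentrate (1.5 L/ha) diluted in water. Fresh-weight growth inhibition scored after 3 weeks on 0-5 scale (5: >85%, 0: <5%).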

Setaria viridis = tested on: Setaria viridis
In short: as §1

Digitaria sanguinalis = tested on: Digitaria sanguinalis
In short: as §1

Leptochloa chinensis = tested on: Leptochloa chinensis
In short: as §1

Abutilon theophrasti = tested on: Abutilon theophrasti
In short: as §1

Monochoria vaginalis = tested on: Monochoria vaginalis
In short: as §1

Row | SMILES | Activity level (growth inhibition rate) Galium spurium (Galium spurium) | Activity level (growth inhibition rate) Setaria viridis (Setaria viridis) | Activity level (growth inhibition rate) Digitaria sanguinalis (Digitaria sanguinalis) | Activity level (growth inhibition rate) Leptochloa chinensis (Leptochloa chinensis) | Activity level (growth inhibition rate) Abutilon theophrasti (Abutilon theophrasti) | Activity level (growth inhibition rate) Monochoria Vaginalis (Monochoria vaginalis)
1 | CNc1c(Cl)c(F)nc(OC(C)C(=O)SC)c1Cl (stereo not drawn) [Compound 127] | 5 (Level 5: the growth inhibition rate is greater than 85%) | 5 (Level 5: the growth inhibition rate is greater than 85%) | 5 (Level 5: the growth inhibition rate is greater than 85%) | 5 (Level 5: the growth inhibition rate is greater than 85%) | 5 (Level 5: the growth inhibition rate is greater than 85%) | 5 (Level 5: the growth inhibition rate is greater than 85%)
2 | CC(Oc1nc(F)c(Cl)c(N)c1Cl)C(=O)SC1CCC1 (stereo not drawn) [Compound 124] | 5 (Level 5: the growth inhibition rate is greater than 85%) | 5 (Level 5: the growth inhibition rate is greater than 85%) | 5 (Level 5: the growth inhibition rate is greater than 85%) | 5 (Level 5: the growth inhibition rate is greater than 85%) | 5 (Level 5: the growth inhibition rate is greater than 85%) | 5 (Level 5: the growth inhibition rate is greater than 85%)
3 | CSC(=O)C(C)Oc1ncc(C(C)C)c(N)c1Cl (stereo not drawn) [Compound 9] | 5 (Level 5: the growth inhibition rate is greater than 85%) | 5 (Level 5: the growth inhibition rate is greater than 85%) | 5 (Level 5: the growth inhibition rate is greater than 85%) | 5 (Level 5: the growth inhibition rate is greater than 85%) | 5 (Level 5: the growth inhibition rate is greater than 85%) | 5 (Level 5: the growth inhibition rate is greater than 85%)
4 | CSC(=O)C(C)Oc1ncc(I)c(N)c1I (stereo not drawn) [Compound 13] | 5 (Level 5: the growth inhibition rate is greater than 85%) | 5 (Level 5: the growth inhibition rate is greater than 85%) | 5 (Level 5: the growth inhibition rate is greater than 85%) | 5 (Level 5: the growth inhibition rate is greater than 85%) | 5 (Level 5: the growth inhibition rate is greater than 85%) | 5 (Level 5: the growth inhibition rate is greater than 85%)
5 | CC(Oc1nc(F)c(Cl)c(N)c1Cl)C(=O)SCC(Cl)=C(Cl)Cl (stereo not drawn) [Compound 92] | 5 (Level 5: the growth inhibition rate is greater than 85%) | 5 (Level 5: the growth inhibition rate is greater than 85%) | 5 (Level 5: the growth inhibition rate is greater than 85%) | 5 (Level 5: the growth inhibition rate is greater than 85%) | 5 (Level 5: the growth inhibition rate is greater than 85%) | 5 (Level 5: the growth inhibition rate is greater than 85%)
6 | C#CCSC(=O)C(C)Oc1nc(F)c(Cl)c(N)c1Cl (stereo not drawn) [Compound 90] | 5 (Level 5: the growth inhibition rate is greater than 85%) | 5 (Level 5: the growth inhibition rate is greater than 85%) | 5 (Level 5: the growth inhibition rate is greater than 85%) | 5 (Level 5: the growth inhibition rate is greater than 85%) | 5 (Level 5: the growth inhibition rate is greater than 85%) | 5 (Level 5: the growth inhibition rate is greater than 85%)
7 | CSC(=O)C(C)Oc1ncc(Cl)c(N)c1C (stereo not drawn) [Compound 21] | 5 (Level 5: the growth inhibition rate is greater than 85%) | 5 (Level 5: the growth inhibition rate is greater than 85%) | 5 (Level 5: the growth inhibition rate is greater than 85%) | 5 (Level 5: the growth inhibition rate is greater than 85%) | 5 (Level 5: the growth inhibition rate is greater than 85%) | 5 (Level 5: the growth inhibition rate is greater than 85%)
8 | CC(Oc1nc(F)c(Cl)c(N)c1Cl)C(=O)Sc1ccc2ccccc2c1 (stereo not drawn) [Compound 114] | 5 (Level 5: the growth inhibition rate is greater than 85%) | 5 (Level 5: the growth inhibition rate is greater than 85%) | 5 (Level 5: the growth inhibition rate is greater than 85%) | 5 (Level 5: the growth inhibition rate is greater than 85%) | 5 (Level 5: the growth inhibition rate is greater than 85%) | 5 (Level 5: the growth inhibition rate is greater than 85%)
9 | CCCCC(C)SC(=O)C(C)Oc1nc(F)c(Cl)c(N)c1Cl (stereo not drawn) [Compound 151] | 5 (Level 5: the growth inhibition rate is greater than 85%) | 5 (Level 5: the growth inhibition rate is greater than 85%) | 5 (Level 5: the growth inhibition rate is greater than 85%) | 5 (Level 5: the growth inhibition rate is greater than 85%) | 5 (Level 5: the growth inhibition rate is greater than 85%) | 5 (Level 5: the growth inhibition rate is greater than 85%)
10 | CCCCCCCCCCCCSC(=O)C(C)Oc1nc(F)c(Cl)c(N)c1Cl (stereo not drawn) [Compound 143] | 5 (Level 5: the growth inhibition rate is greater than 85%) | 5 (Level 5: the growth inhibition rate is greater than 85%) | 5 (Level 5: the growth inhibition rate is greater than 85%) | 5 (Level 5: the growth inhibition rate is greater than 85%) | 5 (Level 5: the growth inhibition rate is greater than 85%) | 5 (Level 5: the growth inhibition rate is greater than 85%)
11 | CC(Oc1nc(F)c(Cl)c(N)c1Cl)C(=O)Sc1ccncc1 (stereo not drawn) [Compound 116] | 5 (Level 5: the growth inhibition rate is greater than 85%) | 5 (Level 5: the growth inhibition rate is greater than 85%) | 5 (Level 5: the growth inhibition rate is greater than 85%) | 5 (Level 5: the growth inhibition rate is greater than 85%) | 5 (Level 5: the growth inhibition rate is greater than 85%) | 5 (Level 5: the growth inhibition rate is greater than 85%)
12 | COC(=O)C(C)SC(=O)C(C)Oc1nc(F)c(Cl)c(N)c1Cl (stereo not drawn) [Compound 95] | 5 (Level 5: the growth inhibition rate is greater than 85%) | 5 (Level 5: the growth inhibition rate is greater than 85%) | 5 (Level 5: the growth inhibition rate is greater than 85%) | 5 (Level 5: the growth inhibition rate is greater than 85%) | 5 (Level 5: the growth inhibition rate is greater than 85%) | 5 (Level 5: the growth inhibition rate is greater than 85%)
13 | CSC(=O)C(C)Oc1nc(F)c(Cl)c(NC(=O)c2ccccc2)c1Cl (stereo not drawn) [Compound 131] | 5 (Level 5: the growth inhibition rate is greater than 85%) | 5 (Level 5: the growth inhibition rate is greater than 85%) | 5 (Level 5: the growth inhibition rate is greater than 85%) | 5 (Level 5: the growth inhibition rate is greater than 85%) | 5 (Level 5: the growth inhibition rate is greater than 85%) | 5 (Level 5: the growth inhibition rate is greater than 85%)
14 | CCCCCCSC(=O)C(C)Oc1nc(F)c(Cl)c(N)c1Cl (stereo not drawn) [Compound 72] | 5 (Level 5: the growth inhibition rate is greater than 85%) | 5 (Level 5: the growth inhibition rate is greater than 85%) | 5 (Level 5: the growth inhibition rate is greater than 85%) | 5 (Level 5: the growth inhibition rate is greater than 85%) | 5 (Level 5: the growth inhibition rate is greater than 85%) | 5 (Level 5: the growth inhibition rate is greater than 85%)
